This note sets out measurements from PubChem BioAssay (NCI).

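1) Cells in 96-well plates. 2) Compound, 48 h, 5 concentrations. 3) Linear interpolation between surrounding doses. 4) Unreached endpoint = highest concentration. GI50 = concentration required for 50% inhibition of growth. At the TGI there is no net growth.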

One experiment relates to HS 578T breast. In words: DTP human tumour cell line panel, 48 h.
In the case of `CC(C)CNc1nc(-c2ccccc2Cl)nc2ccccc12`, the GI50 (usually the concentration that inhibits growth by half) is 18 µM and the TGI (commonly the concentration giving total growth inhibition) amounted to 37.3 µM.

The molecule `CN(C)CCOc1ccc([N+](=O)[O-])c2cccnc12` showed a total growth inhibition concentration (TGI) above 100 µM.

Turning to `CCN(CC)CCNC(Cc1ccccc1)c1ccc(OCc2ccccc2)cc1` (stereo unspecified), the GI50 was 4.32 µM and the TGI came to 23.8 µM.

As to `Cn1c(Cl)c(/C=C2/C(=O)Nc3ccccc32)c2ccccc21`, the GI50 is 0.248 µM and the concentration for total growth inhibition (TGI) was found to be 2.03 µM.

As for `C=C(C)[C@@H]1CC[C@]2(COCCCN)CC[C@]3(C)[C@H](CC[C@@H]4[C@@](C)(CCCNCCCN)[C@H](C(=C)C)CC[C@]43C)[C@@H]12`, the GI50 was 2.16 µM and the total growth inhibition concentration (TGI) was determined as 5.54 µM.

`O=C1NC(=S)S/C1=C/c1ccc2c(c1)OCO2`: the GI50 was 36.8 µM and the TGI was above 100 µM.

As for `Cc1cc(Cl)ccc1OCC(=O)Nc1nc2c(Cl)cccc2s1`, the GI50 is above 100 µM and the TGI was above 100 µM.

`CNC(=O)OCc1c(COC(=O)NC)c(-c2ccc(-c3ccccc3)cc2)n(C)c1C`: the TGI is above 68.2 µM.

The next experiment concerns SR leukemia. Description: DTP human tumour cell line panel, 48 h.
Regarding `C[C@]12CCc3sc(Nc4ccc(OC(F)(F)F)cc4)nc3C1=CC[C@@H]1[C@@H]2CC[C@]2(C)C(=O)CC[C@@H]12`, the GI50 was 2.74 µM and the total growth inhibition concentration (TGI) was above 100 µM.

Consider `CCN1C(=O)c2ccc3c4c(ccc(c24)C1=O)C(=O)N(CCCNCc1ccccc1OC)C3=O`, for which the GI50 is 0.466 µM and the TGI turned out to be 6.3 µM.

Consider `O=C(/C=C/c1ccccc1)Nc1ncc(Cc2ccccc2Cl)s1`, for which the GI50 is 0.153 µM and the total growth inhibition concentration (TGI) was above 100 µM.

As to `CN(c1ccc(NC(=O)Nc2c(Cl)cccc2Cl)cc1)c1ccnc(Nc2cccc(CS(C)(=O)=O)c2)n1`, the 50% growth inhibitory concentration (GI50) is 0.303 µM and the TGI is above 25 µM.

`CN(C)C/C=C/C(=O)Nc1ccc(C(=O)N[C@@]2(C)CCC[C@@H](Nc3ncc(Cl)c(-c4c[nH]c5ccccc45)n3)C2)nc1`: the GI50 was below 0.01 µM and the TGI was found to be 1.09 µM.

Take `CC(C)CNc1nc(-c2ccccc2Cl)nc2ccccc12`: the GI50 was 19.7 µM and the total growth inhibition concentration (TGI) was 44.9 µM.

In turn, `O=C(Nc1cccc(O)c1)C(=O)C1C(=O)NC(=S)NC1=O` returned a total growth inhibition concentration (TGI) above 100 µM.

As to `CN(C)CCOc1ccc([N+](=O)[O-])c2cccnc12`, the TGI is above 100 µM.

The molecule `O=C1N/C(=C\[N+](=O)[O-])c2ccccc21` displayed a TGI above 100 µM.

With `CCN(CC)CCNC(Cc1ccccc1)c1ccc(OCc2ccccc2)cc1` (stereo unspecified), the GI50 was 2.35 µM and the TGI was found to be 6.74 µM.

`C=C(C)[C@@H]1CC[C@]2(COCCCN)CC[C@]3(C)[C@H](CC[C@@H]4[C@@](C)(CCCNCCCN)[C@H](C(=C)C)CC[C@]43C)[C@@H]12`: the GI50 was 1.32 µM and the TGI stood at 3.59 µM.

`CCOC1C(Br)Cn2c(=O)c3cc4ccccc4cc3c(=O)n2C1C` (stereo unspecified) came in with a TGI above 100 µM.

On to `O=C1NC(=S)S/C1=C/c1ccc2c(c1)OCO2`, for which the GI50 was above 100 µM and the TGI is above 100 µM.

Regarding `CNC(=O)OCc1c(COC(=O)NC)c(-c2ccc(-c3ccccc3)cc2)n(C)c1C`, the total growth inhibition concentration (TGI) is above 100 µM.

For `N/N=C\c1c2ccccc2c(=O)n2c1oc1ccccc12`, the GI50 was 5.61 µM and the TGI stood at 26 µM.

Regarding `COc1ccc2nc3cc(Cl)ccc3c(Sc3ccc([N+](=O)[O-])cc3C)c2c1`, the TGI is above 100 µM.

Another experiment deals with UACC-257 melanoma. Description: DTP human tumour cell line panel, 48 h.
As to `C[C@]12CCc3sc(Nc4ccc(OC(F)(F)F)cc4)nc3C1=CC[C@@H]1[C@@H]2CC[C@]2(C)C(=O)CC[C@@H]12`, the GI50 is 4.89 µM and the TGI is 28.8 µM.

For `CCN1C(=O)c2ccc3c4c(ccc(c24)C1=O)C(=O)N(CCCNCc1ccccc1OC)C3=O`, the concentration for 50% growth inhibition (GI50) is 0.264 µM and the total growth inhibition concentration (TGI) turned out to be 0.88 µM.

With `O=C(/C=C/c1ccccc1)Nc1ncc(Cc2ccccc2Cl)s1`, the GI50 was above 100 µM and the TGI is above 100 µM.

For the molecule `CN(c1ccc(NC(=O)Nc2c(Cl)cccc2Cl)cc1)c1ccnc(Nc2cccc(CS(C)(=O)=O)c2)n1`, the GI50 is 1.94 µM and the TGI came out at 6.55 µM.

As for `CN(C)C/C=C/C(=O)Nc1ccc(C(=O)N[C@@]2(C)CCC[C@@H](Nc3ncc(Cl)c(-c4c[nH]c5ccccc45)n3)C2)nc1`, the GI50 is below 0.01 µM and the TGI stood at 0.121 µM.

As for `CCCCCCCCn1ccc2cc(NC(=O)Cn3cc(CN4CCCCCC4)nn3)ccc21`, the GI50 was 1.91 µM and the total growth inhibition concentration (TGI) is 3.58 µM.

Regarding `COc1ccc2c(c1)C(=O)CCc1cc(OC)c(OC)c(OC)c1-2`, the total growth inhibition concentration (TGI) is above 100 µM.

`O=C(Nc1cccc(O)c1)C(=O)C1C(=O)NC(=S)NC1=O` displayed a TGI above 100 µM.

`CN(C)CCOc1ccc([N+](=O)[O-])c2cccnc12` came in with a concentration for total growth inhibition (TGI) above 100 µM.

`O=C1N/C(=C\[N+](=O)[O-])c2ccccc21`: the TGI was above 100 µM.

Consider `CCN(CC)CCNC(Cc1ccccc1)c1ccc(OCc2ccccc2)cc1` (stereo unspecified), for which the GI50 is 2.13 µM and the TGI was found to be 4.85 µM.

Turning to `Cn1c(Cl)c(/C=C2/C(=O)Nc3ccccc32)c2ccccc21`, the GI50 is 10.7 µM and the concentration for total growth inhibition (TGI) is 37.8 µM.

As for `C=C(C)[C@@H]1CC[C@]2(COCCCN)CC[C@]3(C)[C@H](CC[C@@H]4[C@@](C)(CCCNCCCN)[C@H](C(=C)C)CC[C@]43C)[C@@H]12`, the GI50 was 1.88 µM and the concentration for total growth inhibition (TGI) came out at 3.67 µM.

With `CCOC1C(Br)Cn2c(=O)c3cc4ccccc4cc3c(=O)n2C1C` (stereo unspecified), the total growth inhibition concentration (TGI) was above 100 µM.

Regarding `O=C1NC(=S)S/C1=C/c1ccc2c(c1)OCO2`, the GI50 was above 100 µM and the concentration for total growth inhibition (TGI) was above 100 µM.

As to `Cc1cc(Cl)ccc1OCC(=O)Nc1nc2c(Cl)cccc2s1`, the GI50 is above 100 µM and the TGI was above 100 µM.

For `CNC(=O)OCc1c(COC(=O)NC)c(-c2ccc(-c3ccccc3)cc2)n(C)c1C`, the TGI turned out to be 37.3 µM. In other words, the double-digit micromolar range.

As to `N/N=C\c1c2ccccc2c(=O)n2c1oc1ccccc12`, the GI50 is 17.3 µM and the concentration for total growth inhibition (TGI) was 39 µM.

`COc1ccc2nc3cc(Cl)ccc3c(Sc3ccc([N+](=O)[O-])cc3C)c2c1` returned a TGI above 100 µM.
